Assay results published in patent publication US20020137929A1, “1 - (3-heterocyclylphenyl) isothiourea, -isourea, -guanidine and -amidine herbicidal agents” (Intellectual Property Department, BASF Aktiengesellschaft, priority 1998, published 2002).

Columns and labels:
[1] = test system: CHEAL (Lambsquarters, Common); assay: Preemergence herbicidal evaluation; format: in vivo, Chenopodium album; details: rated 4-5 weeks after treatment
Summary of the method: (§1)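 Preemergence soil application of compound, sprayed in aqueous acetone at rates equivalent to about 0.0156 to 0.500 kg per hectare onto freshly sown cups. Plant response was judged by eye on a 0-9 scale four to five weeks later.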

[2] = test system: IPOHE (Morningglory, Ivyleaf); assay: Preemergence herbicidal evaluation; format: in vivo, Ipomoea hederacea; details: rated 4-5 weeks after treatment
Summary of the method: as §1

AMBEL (Ragweed, Common) = assay: Preemergence herbicidal evaluation; format: in vivo, Ambrosia artemisifolia; details: rated 4-5 weeks after treatment
Summary of the method: as §1

[3] = test system: ECHORC (Watergrass (Calif.)); assay: Postemergence weed control under flooded paddy conditions; format: in vivo, Echinochloa oryzoides; details: postemergence weeds, 3-4 weeks after treatment
Summary of the method: (§2)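 Containers holding 3–5 cm weeds and rice at 1.5–2.5 leaves are flooded to 1.5–3 cm above soil. Compound in 50/50 v/v aqueous/acetone is then added directly to the water, about 0.0313–0.500 kg/ha. Plants are kept in the greenhouse and rated 0–9 visually at 3–4 weeks.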

GALAP (Galium) = assay: Postemergence herbicidal evaluation; format: in vivo, Galium aparine; details: postemergence
Summary of the method: (§3)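 Young plants, roughly two weeks from seeding, receive the active ingredient as a sprayed dispersion (acetone/water 50/50, 0.5% TWEEN 20) at 40 psi. Doses span about 0.0156 to 0.500 kg/ha. A visual score from 0 to 9 compares treated with control plants four to five weeks on.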

CYPIR (Rice Flatsedge) = assay: Preemergence weed control under flooded paddy conditions; format: in vivo, Cyperus iria; details: rated 3-4 weeks after treatment
Summary of the method: (§4)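 Silt loam, seeds in top 0.5 cm; flood held 1.5-3 cm; test cpd as acetone/water 50/50 into flood water, ~0.0313-0.500 kg/ha a.i.; greenhouse 3-4 wk; visual 0-9 score vs control.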

ORYSAT (Rice, Tebonnet) = assay: Preemergence herbicidal evaluation; format: in vivo, Oryza sativa, (L.) Tebonnet; details: rated 4-5 weeks after treatment
Summary of the method: as §1

[4] = test system: TRZAWR (Wheat, Winter, cv Riband); assay: Preemergence herbicidal evaluation; format: in vivo, Triticum aestivum; details: rated 4-5 weeks after treatment
Summary of the method: as §1

ZEAMX (Corn, Field) [5] = assay: Postemergence herbicidal evaluation; format: in vivo, Zea mays; details: postemergence
Summary of the method: as §3

CYPSE (Flatsedge) [6] = assay: Preemergence weed control under flooded paddy conditions; format: in vivo, Cyperus serotinus; details: rated 3-4 weeks after treatment
Summary of the method: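 Values are visual 0-9 scores against a control for a preemergence application into paddy flood water at about 0.0313 to 0.500 kg/ha. Greenhouse duration was three to four weeks.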

CASOB (Sicklepod) = assay: Postemergence herbicidal evaluation; format: in vivo, Cassia obtusifolia; details: postemergence
Summary of the method: as §3

CYPSE (Flatsedge) [7] = assay: Postemergence weed control under flooded paddy conditions; format: in vivo, Cyperus serotinus; details: postemergence weeds, 3-4 weeks after treatment
Summary of the method: as §2

[8] = test system: ECHORC (Watergrass (Calif.)); assay: Preemergence weed control under flooded paddy conditions; format: in vivo, Echinochloa oryzoides; details: rated 3-4 weeks after treatment
Summary of the method: as §4

ZEAMX (Corn, Field) [9] = assay: Preemergence herbicidal evaluation; format: in vivo, Zea mays; details: rated 4-5 weeks after treatment
Summary of the method: as §1

CCOC(=O)CN1C(=O)C(=Cc2ccc(F)cc2)SC1=Nc1cc(-n2c(=O)cc(C(F)(F)F)n(C)c2=O)c(F)cc1Cl [Compound 21, Ethyl 2-{{2-chloro-5-[3,6-dihydro-3-methyl-2,6-dioxo-4-(trifluoromethyl)-1(2H)-pyrimidinyl]-4-fluorophenyl}imino}-5-(p-fluorobenzylidene)-4-oxo-3-thiazolidineacetate]
CHEAL preemergence herbicidal rating ([1]; rate 0.2500 kg/ha): 9.0
IPOHE preemergence herbicidal rating ([2]; rate 0.2500 kg/ha): 0.0
AMBEL preemergence herbicidal rating (AMBEL (Ragweed, Common); rate 0.2500 kg/ha): 0.0
Herbicidal rating ECHORC ([3]; rate 0.1160 kg/ha): 2.0
Herbicidal rating ECHORC ([3]; rate 0.2310 kg/ha): 4.0
Herbicidal rating ECHORC ([3]; rate 0.4630 kg/ha): 5.0
GALAP herbicidal rating (GALAP (Galium); rate 0.0158 kg/ha): 2.0
GALAP herbicidal rating (GALAP (Galium); rate 0.0315 kg/ha): 2.0
GALAP herbicidal rating (GALAP (Galium); rate 0.0630 kg/ha): 4.0
Herbicidal rating CYPIR (CYPIR (Rice Flatsedge); 0.1160 kg/ha): 0.0
Herbicidal rating CYPIR (CYPIR (Rice Flatsedge); 0.2310 kg/ha): 0.0
Herbicidal rating CYPIR (CYPIR (Rice Flatsedge); 0.4630 kg/ha): 0.0
ORYSAT preemergence herbicidal rating (ORYSAT (Rice, Tebonnet); rate 0.2500 kg/ha): 0.0
TRZAWR preemergence herbicidal rating ([4]; rate 0.2500 kg/ha): 0.0
ZEAMX herbicidal rating (ZEAMX (Corn, Field) [5]; rate 0.0158 kg/ha): 4.0
ZEAMX herbicidal rating (ZEAMX (Corn, Field) [5]; rate 0.0315 kg/ha): 4.0
ZEAMX herbicidal rating (ZEAMX (Corn, Field) [5]; rate 0.0630 kg/ha): 4.5
Herbicidal rating CYPSE (CYPSE (Flatsedge) [6]; 0.1160 kg/ha): 0.0
Herbicidal rating CYPSE (CYPSE (Flatsedge) [6]; 0.2310 kg/ha): 0.0
Herbicidal rating CYPSE (CYPSE (Flatsedge) [6]; 0.4630 kg/ha): 0.0
CASOB herbicidal rating (CASOB (Sicklepod); rate 0.0158 kg/ha): 0.0
CASOB herbicidal rating (CASOB (Sicklepod); rate 0.0315 kg/ha): 0.0
CASOB herbicidal rating (CASOB (Sicklepod); rate 0.0630 kg/ha): 0.0
Herbicidal rating CYPSE (CYPSE (Flatsedge) [7]; rate 0.1160 kg/ha): 0.0
Herbicidal rating CYPSE (CYPSE (Flatsedge) [7]; rate 0.2310 kg/ha): 0.0
Herbicidal rating CYPSE (CYPSE (Flatsedge) [7]; rate 0.4630 kg/ha): 0.0
Herbicidal rating ECHORC ([8]; 0.1160 kg/ha): 2.0
Herbicidal rating ECHORC ([8]; 0.2310 kg/ha): 4.0
Herbicidal rating ECHORC ([8]; 0.4630 kg/ha): 5.0
ZEAMX preemergence herbicidal rating (ZEAMX (Corn, Field) [9]; rate 0.2500 kg/ha): 0.0

C=CCN1C(=O)CSC1=Nc1cc(-n2c(=O)cc(C(F)(F)F)n(C)c2=O)c(F)cc1Cl [Compound 27]
Preemergence herbicidal rating CHEAL ([1]; rate 0.0156 kg/ha): 0.0
Preemergence herbicidal rating CHEAL ([1]; rate 0.0313 kg/ha): 9.0
Preemergence herbicidal rating CHEAL ([1]; rate 0.0625 kg/ha): 9.0
Preemergence herbicidal rating CHEAL ([1]; rate 0.1250 kg/ha): 9.0
Preemergence herbicidal rating CHEAL ([1]; rate 0.2500 kg/ha): 9.0
Preemergence herbicidal rating IPOHE ([2]; rate 0.0156 kg/ha): 0.0
Preemergence herbicidal rating IPOHE ([2]; rate 0.0313 kg/ha): 0.0
Preemergence herbicidal rating IPOHE ([2]; rate 0.0625 kg/ha): 8.0
Preemergence herbicidal rating IPOHE ([2]; rate 0.1250 kg/ha): 9.0
Preemergence herbicidal rating IPOHE ([2]; rate 0.2500 kg/ha): 9.0
Preemergence herbicidal rating AMBEL (AMBEL (Ragweed, Common); rate 0.0156 kg/ha): 0.0
Preemergence herbicidal rating AMBEL (AMBEL (Ragweed, Common); rate 0.0313 kg/ha): 2.0
Preemergence herbicidal rating AMBEL (AMBEL (Ragweed, Common); rate 0.0625 kg/ha): 2.0
Preemergence herbicidal rating AMBEL (AMBEL (Ragweed, Common); rate 0.1250 kg/ha): 9.0
Preemergence herbicidal rating AMBEL (AMBEL (Ragweed, Common); rate 0.2500 kg/ha): 7.0
Herbicidal rating ECHORC ([3]; rate 0.0313 kg/ha): 6.0
Herbicidal rating ECHORC ([3]; rate 0.0625 kg/ha): 7.0
Herbicidal rating ECHORC ([3]; rate 0.1250 kg/ha): 9.0
Herbicidal rating ECHORC ([3]; rate 0.2500 kg/ha): 9.0
GALAP herbicidal rating (GALAP (Galium); rate 0.0158 kg/ha): 1.0
GALAP herbicidal rating (GALAP (Galium); rate 0.0315 kg/ha): 4.0
GALAP herbicidal rating (GALAP (Galium); rate 0.0630 kg/ha): 4.0
Herbicidal rating CYPIR (CYPIR (Rice Flatsedge); 0.0313 kg/ha): 3.0
Herbicidal rating CYPIR (CYPIR (Rice Flatsedge); 0.0625 kg/ha): 4.0
Herbicidal rating CYPIR (CYPIR (Rice Flatsedge); 0.1250 kg/ha): 6.0
Herbicidal rating CYPIR (CYPIR (Rice Flatsedge); 0.2500 kg/ha): 9.0
Preemergence herbicidal rating ORYSAT (ORYSAT (Rice, Tebonnet); rate 0.0156 kg/ha): 0.0
Preemergence herbicidal rating ORYSAT (ORYSAT (Rice, Tebonnet); rate 0.0313 kg/ha): 0.0
Preemergence herbicidal rating ORYSAT (ORYSAT (Rice, Tebonnet); rate 0.0625 kg/ha): 3.0
Preemergence herbicidal rating ORYSAT (ORYSAT (Rice, Tebonnet); rate 0.1250 kg/ha): 3.0
Preemergence herbicidal rating ORYSAT (ORYSAT (Rice, Tebonnet); rate 0.2500 kg/ha): 8.0
Preemergence herbicidal rating TRZAWR ([4]; rate 0.0156 kg/ha): 0.0
Preemergence herbicidal rating TRZAWR ([4]; rate 0.0625 kg/ha): 3.0
Preemergence herbicidal rating TRZAWR ([4]; rate 0.1250 kg/ha): 7.0
Preemergence herbicidal rating TRZAWR ([4]; rate 0.2500 kg/ha): 9.0
ZEAMX herbicidal rating (ZEAMX (Corn, Field) [5]; rate 0.0158 kg/ha): 5.0
ZEAMX herbicidal rating (ZEAMX (Corn, Field) [5]; rate 0.0315 kg/ha): 5.5
ZEAMX herbicidal rating (ZEAMX (Corn, Field) [5]; rate 0.0630 kg/ha): 6.5
Herbicidal rating CYPSE (CYPSE (Flatsedge) [6]; 0.0313 kg/ha): 0.0
Herbicidal rating CYPSE (CYPSE (Flatsedge) [6]; 0.0625 kg/ha): 0.0
Herbicidal rating CYPSE (CYPSE (Flatsedge) [6]; 0.1250 kg/ha): 0.0
Herbicidal rating CYPSE (CYPSE (Flatsedge) [6]; 0.2500 kg/ha): 9.0
CASOB herbicidal rating (CASOB (Sicklepod); rate 0.0158 kg/ha): 1.0
CASOB herbicidal rating (CASOB (Sicklepod); rate 0.0315 kg/ha): 1.0
CASOB herbicidal rating (CASOB (Sicklepod); rate 0.0630 kg/ha): 1.0
Herbicidal rating CYPSE (CYPSE (Flatsedge) [7]; rate 0.0313 kg/ha): 0.0
Herbicidal rating CYPSE (CYPSE (Flatsedge) [7]; rate 0.0625 kg/ha): 0.0
Herbicidal rating CYPSE (CYPSE (Flatsedge) [7]; rate 0.1250 kg/ha): 0.0
Herbicidal rating CYPSE (CYPSE (Flatsedge) [7]; rate 0.2500 kg/ha): 9.0
Herbicidal rating ECHORC ([8]; 0.0313 kg/ha): 6.0
Herbicidal rating ECHORC ([8]; 0.0625 kg/ha): 7.0
Herbicidal rating ECHORC ([8]; 0.1250 kg/ha): 9.0
Herbicidal rating ECHORC ([8]; 0.2500 kg/ha): 9.0
Preemergence herbicidal rating ZEAMX (ZEAMX (Corn, Field) [9]; rate 0.0156 kg/ha): 0.0
Preemergence herbicidal rating ZEAMX (ZEAMX (Corn, Field) [9]; rate 0.0313 kg/ha): 7.0
Preemergence herbicidal rating ZEAMX (ZEAMX (Corn, Field) [9]; rate 0.0625 kg/ha): 8.0
Preemergence herbicidal rating ZEAMX (ZEAMX (Corn, Field) [9]; rate 0.1250 kg/ha): 9.0
Preemergence herbicidal rating ZEAMX (ZEAMX (Corn, Field) [9]; rate 0.2500 kg/ha): 9.0
